Measurements: US7119206B2, “Derivative of dihydro-dibenzo (a) anthracenes and their use as selective estrogen receptor modulators” (Eli Lilly and Company, priority 2002, dated 2006)
Where a name gives a salt, the structure may show the parent alone. Read-outs that look alike come from different tables or passages of the source.

How the values were obtained:
ERbeta receptor = biological target: T1, ERbeta receptor (Homo sapiens, UniProt Q92731); assay: ER beta competition binding assay (3H-Estradiol); conditions: 3H-Estradiol competition; IC50 converted to Ki using Cheng-Prusoff; read-out: ER binding Ki (ERβ)
T1 construct: purchased PanVera
Method: (§1) Competition binding assay is run in a buffer containing 50 mM Hepes, pH 7.5, 1.5 mM EDTA, 150 mM NaCl, 10% glycerol, 1 mg/ml ovalbumin and 5 mM DTT, using 0.025 μCi per well ^3H-Estradiol(NEN #NET517 at 118 Ci/mmol, 1 mCi/ml), 10 ng/well ERAlpha or ERbeta receptor (PanVera). Competing compounds are added at 10 different concentrations. Non-specific binding is determined in the presence of 1 μM of 17-B Estradiol. The binding reaction (140 μl) is incubated for 4 hours at room temperature, then 70 μl of cold DCC buffer is added to each reaction (DCC buffer contains per 50 ml of assay buffer, 0.75 g of charcoal (Sigma) and 0.25 g of dextran (Pharmacia)). Plates are mixed 8 minutes on an orbital shaker at 4° C. Plates are then centrifuged at 3,000 rpm at 4° C. for 10 minutes. An aliquot of 120 μl of the mix is transferred to another 96-well, white flat bottom plate (Costar) and 175 μl of Wallac Optiphase “Hisafe 3” scintillation fluid is added to each well. Plates are sealed and shaken vigorously on an orbital shaker. After an incubation of 2.5 hrs, read plates in a Wallac Microbeta counter. […] The Kd for ^3H-Estradiol is determined by saturation binding to ER alpha and ER beta receptors. The IC50 values for compounds are converted to Ki using Cheng-Prusoff equation and the Kd determined by saturation binding assay.

ERAlpha receptor = biological target: T2, ERAlpha receptor (Homo sapiens, UniProt P03372); assay: ER alpha competition binding assay (3H-Estradiol); conditions: 3H-Estradiol competition; IC50 converted to Ki using Cheng-Prusoff; read-out: ER binding Ki (ERα)
T2 construct: purchased PanVera
T2 sequence (P03372 1-595): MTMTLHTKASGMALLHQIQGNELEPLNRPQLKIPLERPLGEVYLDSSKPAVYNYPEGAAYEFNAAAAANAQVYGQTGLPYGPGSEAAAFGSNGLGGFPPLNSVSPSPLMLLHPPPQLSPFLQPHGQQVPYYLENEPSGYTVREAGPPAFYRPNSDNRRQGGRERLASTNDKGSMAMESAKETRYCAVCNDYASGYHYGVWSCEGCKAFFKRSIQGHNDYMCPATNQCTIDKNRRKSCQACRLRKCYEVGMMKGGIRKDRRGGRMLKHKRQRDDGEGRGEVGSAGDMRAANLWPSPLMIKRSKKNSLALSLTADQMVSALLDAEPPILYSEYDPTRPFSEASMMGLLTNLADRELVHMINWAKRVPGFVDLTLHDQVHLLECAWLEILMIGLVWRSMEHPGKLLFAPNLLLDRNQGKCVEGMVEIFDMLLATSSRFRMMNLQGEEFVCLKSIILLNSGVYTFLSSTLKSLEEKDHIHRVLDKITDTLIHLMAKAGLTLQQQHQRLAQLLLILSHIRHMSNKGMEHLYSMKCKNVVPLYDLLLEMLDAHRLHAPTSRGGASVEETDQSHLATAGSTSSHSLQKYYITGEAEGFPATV
Method: as §1

[1] = test system: Ishikawa human endometrial tumor cells; assay: Ishikawa cell assay (PNPP readout), antagonist mode; assay type: cell-based; conditions: with 1 nM E2
Source text: (§2) Ishikawa human endometrial tumor cells are maintained in MEM (minimum essential medium, with Earle's salts and L-Glutamine, Gibco BRL, Gaithersburg, Md.), supplemented with 10% fetal bovine serum (FBS) (V/V), (Gibco BRL). One day prior to assay, growth media is changed to assay medium, DMEM/F-12 (3:1) (Dulbecco's Modified Eagle Medium: Nutrient Mixture F-12, 3:1 Mixture, phenol red-free, Gibco BRL) supplemented with 5% dextran coated charcoal stripped fetal bovine serum (DCC-FBS) (Hyclone, Logen, Utah), L-Glutamine (2 mM), MEM sodium pyruvate (1 mM), HEPES (N-[2-hydroxyethyl]piperazine-N′-[2-ethanesulfonic acid] 2 mM) all from Gibco BRL). After an overnight incubation, ishikawa cells are rinsed with Dulbecco's Phosphate Buffered Saline (1×) (D-PBS) without Ca^+2 and Mg^+2 (Gibco BRL), and trypsinized by a 3 minute incubation with 0.25% Trypsin/EDTA, phenol red-free (Gibco BRL). Cells are resuspended in assay medium and adjusted to 250,000 cells/ml. Approximately 25,000 cells in a 100 ul media are added to flat-bottom 96 wells microculture plates (Costar 3596) and incubated at 37° C. in a 5% CO2 humidified incubator for 24 hours. The next day, serial dilutions of compounds are prepared in assay medium (at 6 times the final concentration in the assay). The assay is run in dual mode, agonist and antagonist modes. For the agonist mode, plates receive 25 μl/well of assay medium followed by 25 μl/well of diluted compounds (at 6× the final concentrations). For the antagonist mode, plates receive 25 μl/well of 6 nM E2 (β-Estradiol, Sigma, St. Louis, Mo.) followed by 25 μl/well of diluted compounds (at 6× the final concentrations). After an additional 48-hour incubation at 37° C. in a 5% CO2 humidified incubator, media is aspirated from wells and 100 μl fresh assay medium is added to each microculture. Serial dilutions of compounds are prepared and added to the cells as described above. After an additional 72 hour incubation at 37° C. in a 5% CO2 humidified incubator, the assay is quenched by removing media and rinsing plates twice in Dulbecco's Phosphate Buffered Saline (1×) (D-PBS) (Gibco BRL). The plates are dried for 5 min and frozen at −70° C. for at least 1 hour. The plates are then removed from the freezer and allowed to thaw at room temperature. To each well, 100 μl of 1-Step™ PNPP (Pierce Chemical Company, Rockford, Ill.) is added. After a 20-minute incubation, plates are read on a spectophotometer at 405 nm. The data is fitted to a linear interpolation to derive EC50 (for agonist mode) or IC50 (for antagonist mode) values. For the agonist mode, a % efficacy for each compound is calculated versus the response to Tamoxifen. For the antagonist mode, a % efficacy for each compound is calculated versus E2 (1 nM) alone.

[2] = test system: Ishikawa human endometrial tumor cells; assay: Ishikawa cell assay (PNPP readout), agonist mode; assay type: cell-based; conditions: for Emax / Ishikawa Agonist % Eff: % efficacy versus the response to Tamoxifen; for Emax: read-out: Ishikawa Agonist % Eff
Source text: as §2

[3] = test system: MCF-7 breast adenocarcinoma cells; assay: MCF-7 proliferation assay (14C-thymidine), antagonist mode; assay type: cell-based; conditions: with 10 pM E2
Method: MCF-7 breast adenocarcinoma cells (ATCC HTB 22) are maintained in MEM (minimal essential medium, phenol red-free, Gibco BRL) supplemented with 10% fetal bovine serum (FBS) (V/V), L-glutamine (2 mM), sodium pyruvate (1 mM), HEPES ((N-[2-hydroxyethyl]piperazine-N′-[2-ethanesulfonic acid]10 mM}, non-essential amino acids(0.1 mM)and Penicillin Streptomycin(1×). Seven days prior to assay, MCF-7 cells are switched to assay media which is the same as maintenance medium except supplemented with 10% dextran-coated charcoal-stripped fetal bovine serum (DCC-FBS) assay medium in place of 10% FBS. MCF-7 cells are removed from flasks using 10× Trypsin EDTA (phenol red free, Gibco BRL) and diluted to 1× in (Ca++/Mg++ free HBSS (phenol red-free). Cells are adjusted to 80,000 cells/ml in assay medium. Approximately 8,000 cells (100 μl) are added to each well in 96 well Cytostar T scintillation plates (Amersham) and incubated at 37° C. in a 5% CO2 humidified incubator for 24 hours to allow cell adherence and equilibration after transfer. Serial dilutions of drugs are prepared in assay medium at 4× the final desired concentration). A 50 μl aliquot of drug dilutions (at 4× the final assay concentration) is transferred to duplicate wells followed by 50 μl assay medium for the agonist mode or 50 μl of 40 pM of E2 for the antagonist mode to a final volume of 200 μl. For each of the agonist plates, a basal level (media) and a maximum stimulated level (with 1 μM E2) is determined. For each of the antagonist plates, a basal level (media) and a E2 (10 pM) alone control is determined. After an additional 48 hours at 37° C. in a 5% CO2 humidified incubator, 20 μl of assay medium containing 0.01 μCi of ^14C-thymidine (52 mCi/mmol, […], Amersham) is added to each well. The plates are incubated overnight in the same incubator and then counted on the Wallac Microbeta counter. […] For the agonist mode, an EC50 and percent of maximum E2 stimulation and concentration of maximum stimulation is calculated.

[4] = Homo sapiens, MCF7, antagonist mode

T1 sequence (Q92731 whole entry): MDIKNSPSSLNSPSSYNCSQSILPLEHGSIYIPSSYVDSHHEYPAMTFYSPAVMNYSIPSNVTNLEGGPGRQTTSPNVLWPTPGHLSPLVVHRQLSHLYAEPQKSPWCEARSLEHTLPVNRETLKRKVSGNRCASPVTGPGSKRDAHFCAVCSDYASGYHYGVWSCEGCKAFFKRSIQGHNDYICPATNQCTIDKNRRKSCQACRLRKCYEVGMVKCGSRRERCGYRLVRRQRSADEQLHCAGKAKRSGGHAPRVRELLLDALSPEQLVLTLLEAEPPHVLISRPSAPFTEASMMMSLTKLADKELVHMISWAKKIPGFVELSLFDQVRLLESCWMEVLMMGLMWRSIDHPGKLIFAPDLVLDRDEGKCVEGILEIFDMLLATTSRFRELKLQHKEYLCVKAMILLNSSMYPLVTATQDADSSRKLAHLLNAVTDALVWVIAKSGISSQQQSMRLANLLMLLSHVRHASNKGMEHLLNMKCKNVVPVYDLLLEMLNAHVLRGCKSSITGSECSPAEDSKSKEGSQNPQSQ

SMILES	Ki (ERbeta receptor) [nM]	Ki (ERAlpha receptor) [nM]	IC50 [1] [nM]	EC50 ([2]; Homo sapiens, Ishikawa) [nM]	IC50 [3, 4] [nM]	EC50 [2] [nM]	IC50 ([3]; antagonist mode) [nM]	Emax ([2]; Homo sapiens, Ishikawa) [%]	Ishikawa Agonist % Eff [2] [%]
Oc1ccc2c3c(ccc2c1)Cc1ccc(F)cc1C3c1ccc(OCCN2CCCCC2)cc1 (racemic) [Example 5, 10-Fluoro-12-[4-(2-piperidin-1-yl-ethoxy)-phenyl]-7,12-dihydro-benzo[a]anthracen-3-ol]	31	3	610	11	91			79	
Oc1ccc2c3c(sc2c1)Cc1ccccc1C3c1ccc(OCCN2CCCCC2)cc1 (stereo not shown) [Example 1, 11-[4-(2-Piperidin-1-yl-ethoxy)-phenyl]-6,11-dihydro-benzo[b]naphtho[2,3-d]thiophen-3-ol trifluoroacetate]	5	2	712	3	17			77	
Oc1ccc2c(c1)Cc1sc3cc(O)ccc3c1C2c1ccc(OCCN2CCCCC2)cc1 (stereo not shown) [Example 2, 11-[4-(2-Piperidin-1-yl-ethoxy)-phenyl]-6,11-dihydro-benzo[b]naphtho[2,3-d]thiophene-3,8-diol trifluoroacetate]	1	1	45	0.5	1			103	
Oc1ccc2c3c(sc2c1)Cc1cccc(O)c1C3c1ccc(OCCN2CCCCC2)cc1 (stereo not shown) [Example 3, 11-[4-(2-Piperidin-1-yl-ethoxy)-phenyl]-6,11-dihydro-benzo[b]naphtho[2,3-d]thiophene-3,10-diol trifluoroacetate]	14	3	682	3	42			135	
Oc1ccc2c(c1)C(c1ccc(OCCN3CCCCC3)cc1)c1c(sc3cc(O)ccc13)C2 (stereo not shown) [Example 4, 11-[4-(2-Piperidin-1-yl-ethoxy)-phenyl]-6,11-dihydro-benzo[b]naphtho[2,3-d]thiophene-3,9-diol]	1	1	53	1	1			56	

Further lines, with some results ahead:

Ki (ERbeta receptor) [nM]	Ki (ERAlpha receptor) [nM]	IC50 [1] [nM]	EC50 ([2]; Homo sapiens, Ishikawa) [nM]	IC50 [3, 4] [nM]	EC50 [2] [nM]	IC50 ([3]; antagonist mode) [nM]	SMILES	Emax ([2]; Homo sapiens, Ishikawa) [%]	Ishikawa Agonist % Eff [2] [%]
					116	740	Oc1ccc2c3c(ccc2c1)Cc1ccc(F)cc1C3c1ccc(OCCN2CCCCC2)cc1 (racemic) [Example 6, 10-fluoro-12-[4-(2-piperidin-1-yl-ethoxy)-phenyl]-7,12-dihydro-benzo[a]anthracen-3-ol]		
	1				3	9	Oc1ccc2c3c(ccc2c1)Cc1ccc(F)cc1C3c1ccc(OCCN2CCCCC2)cc1 (racemic) [Example 7, 10-fluoro-12-[4-(2-piperidin-1-yl-ethoxy)-phenyl]-7,12-dihydro-benzo[a]anthracen-3-ol]		72
4					1	2	Oc1ccc2c(c1)Cc1ccc3cc(O)ccc3c1C2c1ccc(OCCN2CCCCC2)cc1 (racemic) [Example 9, 12-[4-(2-Piperidin-1-yl-ethoxy)-phenyl]-7,12-dihydro-benzo[a]anthracene-3,9-diol]		27
5					3		Oc1ccc2c(c1)Cc1ccc3cc(O)ccc3c1C2c1ccc(OCCN2CCCCC2)cc1 (racemic) [Example 10, 12-[4-(2-piperidin-1-yl-ethoxy)-phenyl]-7,12-dihydro-benzo[a]anthracene-3,9-diol]		56
4					1	2	Oc1ccc2c(c1)Cc1ccc3cc(O)ccc3c1C2c1ccc(OCCN2CCCCC2)cc1 (racemic) [Example 11, 12-[4-(2-piperidin-1-yl-ethoxy)-phenyl]-7,12-dihydro-benzo[a]anthracene-3,9-diol]		19
149	70						Oc1ccc2c3c(ccc2c1)Cc1ccc(F)cc1C3c1ccc(OCCN2CCCCC2)cc1 (single isomer, unassigned) [Example 6, 10-fluoro-12-[4-(2-piperidin-1-yl-ethoxy)-phenyl]-7,12-dihydro-benzo[a]anthracen-3-ol]	69	
9		440					Oc1ccc2c3c(ccc2c1)Cc1ccc(F)cc1C3c1ccc(OCCN2CCCCC2)cc1 (single isomer, unassigned) [Example 7, 10-fluoro-12-[4-(2-piperidin-1-yl-ethoxy)-phenyl]-7,12-dihydro-benzo[a]anthracen-3-ol]		
